Test results taken from publication PMC9004346, “Development of small cyclic peptides targeting the CK2α/β interface” (Chemical Communications (Cambridge, England), 2022).
*1 amine or outer side, *2 acyl side, *3 side chain or, on linkers, in order; H or OH if unused. Where a SMILES comes first, the peptide text is derived from it. Bridges are numbered along the chain shown (N, C = ends). [ ]: non-standard residue; d: D form. Trp(2-yl) = O=C([C@H](Cc1c([*:3])[nH]c2ccccc12)N[*:1])[*:2]; hCys = N[C@@H](CCS)C(=O)O

Biological target: T1, CK2α (Homo sapiens, UniProt P68400, K74A/K75A/K76A/R21S)
T1 construct: CK2α_KA (residues 2-329) contained four mutations; made in house
T1 sequence (P68400 2-329 R21S/K74A/K75A/K76A): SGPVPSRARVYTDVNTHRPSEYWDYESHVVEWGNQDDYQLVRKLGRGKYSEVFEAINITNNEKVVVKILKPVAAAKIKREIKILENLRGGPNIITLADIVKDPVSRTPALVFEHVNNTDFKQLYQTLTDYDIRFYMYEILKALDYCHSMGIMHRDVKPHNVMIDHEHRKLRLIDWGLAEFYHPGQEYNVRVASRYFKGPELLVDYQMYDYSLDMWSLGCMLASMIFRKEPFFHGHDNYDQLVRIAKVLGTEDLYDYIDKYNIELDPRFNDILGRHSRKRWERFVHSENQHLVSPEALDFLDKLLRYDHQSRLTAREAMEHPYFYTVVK
Experiment: Isothermal titration calorimetry (ITC) binding to CK2α
Conditions: 25 °C, CK2α_KA
From the text: Ligand efficiency (LE) is a commonly used statistic to evaluate and compare the effectiveness of drug candidates.17 Mathematically, it is related to the IC50 of the molecule, as well as the number of heavy atoms (non-hydrogen) it contains, as detailed in Equation 1. 18
Equation 1 Mathematical expression for the ligand efficiencies of compounds.18 pIC50 = -log10(IC50) LE = Number of non ‒ H atoms […]
greatest activity with the fewest heavy atoms.
1.5 Biophysical experiments
1.5.1 Protein expression and purification
Three constructs of CK2α were used in this study. For FP assays, CK2α_WT was used (residues 2-329).
For ITC CK2α_KA construct was used whilst CK2α_FP10 was used for crystallisation purposes. CK2α_KA (residues 2-329) contained four mutations designed to aid crystallisation and solubility by reducing the overall charge of the protein; R21S, K74A, K75A and K76A. CK2α_FP 10 contained one mutation (R21S) and an N-terminal extension […] aimed at mimicking a substrate peptide for CK2α. These constructs were cloned, expressed, and purified as previously described.19 1.5.2 Fluorescence polarisation
IC50’s were determined using a PHERAstar FS plate reader (BMG labtech). The fluorescein probe was measured using 485 nm excitation and 530 nm emission. The fluorescein probe was covalently linked to the N-terminus of the linear CK2β-based peptide RLYGFKIHPMAYQLQ. IC50’s were measured using 500, 167, 16.7, 8.33 and 0 μM of the test peptide at a constant concentration of DMSO. P7C8, P8C9, P+L and P+ were tested at concentrations of 50.0, 16.7, 1.67, 0.833 and 0 μM due to their higher potencies. The experiments were performed in a Corning 384-well plate with final concentrations of 571 nM CK2α_WT (residues 2-329), 7.4 μM fluorescent peptide (fluorescein probe was covalently linked to the N-terminus of the linear CK2β-based peptide RLYGFKIHPMAYQLQ), 200 mM NaCl, 40mM TRIS, 20 mM MgCl2 and pH 7.5. The plates were read after a 45 min incubation period.
1.5.3 Isothermal titration calorimetry
All ITC experiments were performed at 25 °C using a MicroCal ITC-200 (GE Healthcare). […]

Kd: 750 nM
SMILES: CC(=O)N[C@H]1CCSc2[nH]c3ccccc3c2C[C@@H](C(N)=O)NC(=O)[C@H](CCCCN)NC(=O)[C@H](Cc2ccccc2)NC(=O)CNC(=O)[C@H](Cc2ccc(O)cc2)NC(=O)[C@H](CC(C)C)NC(=O)[C@H](CCCNC(=N)N)NC1=O [Peptide P8C9, (hC)C9RLYGFKWC9] (Ac-[hCys]RLYGFK[Trp(2-yl)]-NH2; thioether 1-8)
